# Reference: patent US5672707A (priority 1991, dated 1997)
# Tests used:
# mice [1] = test: Psychotropic activity test: motor activity; type: in vivo; conditions: intraperitoneally, dose 1/20 of LD
# rat adipocytes [2] = test: Lipid composition of adipocytes after incubation with compounds; type: cell-based; conditions: for FFA/TG in adipocytes / PL/CL in adipocytes / PL/TG in adipocytes: cells, Table 11; for FFAc/FFAm / PLc/PLm: distribution between cells and incubation medium, Table 13
# Protocol: (§1) Lipid regulative activity of the declared compounds--derivatives of 9-amino acridine--were evaluated in vitro[…] using rat adipocytes. Adipocytes were separated from adipose tissue of testis appendages of adult male rats. Lipid composition analysis was performed by the method of thin-layer chromatography.
# (§2) Quantitative analysis of phospholipids (PL), mono- and diacylglycerides (MDG), triacylglycerides (TG), free fatty acids (FFA), free cholesterol (FCL), and methyl esters of fatty acids (MEFA) was performed by the method of spectrophotometry.
# mice [3] = test: Psychotropic activity test: arecoline induced hyperkynesis; type: in vivo; conditions: intraperitoneally, dose 1/20 of LD
# rats = test: Passive avoidance test in normal rats, 50% acquisition; type: in vivo; conditions: for Increase of the number of correct trails (% to control). Passive avoidance test (rats) / change in vivo at 0.1 mg/kg: 0.1 mg/kg i.p. 20 min before training, piracetam 250 mg/kg 60 min before training, rats; for change in vivo at 0.1 mg/kg: Rattus norvegicus, ip, 20 min, read-out: Increase of the number of correct trails (% to control). Passive avoidance test (rats)
# Protocol: (§3) Psychoneurotropic activity of the declared compounds and their influence on learning and memory were observed using unbred male (18-20 g) mice and 180-200 g) rats, held at standard conditions (room temperature 21°-22° C., 12-hours lighting schedule, food and water ad libitum).
# The influence of drugs on reflex conditioning in rats was studied by the passive avoidance test in conditions of 50% acquisition. The effect of the compound was estimated by the increase of the relative number of learned animals with respect to that of control group. […] The other reference drug--noothropic agent piracetam--was given in the dose 250 mg/kg 60 min before training. Amnestic syndrome was stimulated by 20 days application of Sc at the daily dose of 1 mg/kg intraperitoneally. […] The passive avoidance test was performed within 24 hours after the last application of test preparations.
# in vivo = conditions: intraperitoneal injection, Table 5; for LD50: in vivo, ip, read-out: LD50 (mg/kg) by Kerber
# Protocol: as §3
# Acute toxicity was studied by the method of Kerber with intra peritoneal drug injection.
# rat adipocytes [4] = test: Lipid content in incubation medium after incubation of adipocytes; type: cell-based; conditions: incubation medium; Table 12
# Protocol: as §1, §2
# [5] = target: T1, Acetylcholinesterase, enzyme from human erythrocytes (Homo sapiens, UniProt P22303); test: Acetylcholinesterase inhibition, spectrophotometric technique of Ellman; type: biochemical; conditions: Acetylcholinesterase inhibition IC50 (M), enzyme from human erythrocytes; Table 5
# T1 construct: on the enzyme from human erythrocytes; from tissue; host or cells: human erythrocytes
# T1 sequence (P22303-2 with tags, fused parts or gaps limits assumed): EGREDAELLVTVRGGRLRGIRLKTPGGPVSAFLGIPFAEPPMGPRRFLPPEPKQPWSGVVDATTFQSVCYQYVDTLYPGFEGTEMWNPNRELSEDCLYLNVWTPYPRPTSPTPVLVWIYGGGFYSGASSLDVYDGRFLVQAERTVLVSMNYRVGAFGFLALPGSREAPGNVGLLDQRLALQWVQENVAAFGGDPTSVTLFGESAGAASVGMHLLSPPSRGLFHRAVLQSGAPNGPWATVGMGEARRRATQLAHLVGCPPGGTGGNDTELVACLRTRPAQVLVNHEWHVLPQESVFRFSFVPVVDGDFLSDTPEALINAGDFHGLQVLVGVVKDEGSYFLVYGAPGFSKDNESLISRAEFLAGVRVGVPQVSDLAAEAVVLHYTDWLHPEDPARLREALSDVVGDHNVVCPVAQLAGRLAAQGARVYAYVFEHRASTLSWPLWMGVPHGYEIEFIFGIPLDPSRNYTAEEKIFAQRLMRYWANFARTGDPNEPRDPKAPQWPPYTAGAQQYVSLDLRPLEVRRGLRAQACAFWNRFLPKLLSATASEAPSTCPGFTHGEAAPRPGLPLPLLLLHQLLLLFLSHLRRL
# Protocol: Acetylcholinesterase inhibition under the action of preparations was assessed by the spectrophotometric technique of Ellman on the enzyme from human erythrocytes.
# mice [6] = test: Step-down test, scopolamine induced amnesia; type: in vivo
# Protocol: as §3
Structure (SMILES),Motor activity increment (% to control) (mice [1]),Increase of duration of arecoline induced hyperkynesis (% to control) (mice [3]),IC50 [5] [M],change in vivo at 0.1 mg/kg (rats) [%],LD50 (in vivo) [mg/kg],further results
CC1(C)C=Cc2c(nc3ccccc3c2NCc2ccccc2)C1 [VIIk],20 % to control,20 % to control,–,–,–,FFA/TG in adipocytes (rat adipocytes [2]): 0.93; PL/CL in adipocytes (rat adipocytes [2]): 0.61; PL/TG in adipocytes (rat adipocytes [2]): 0.58; FFAc/FFAm (rat adipocytes [2]): 0.95; PLc/PLm (rat adipocytes [2]): 0.78; Increase of the number of correct trails (% to control). Passive avoidance test (rats) (rats): 25 % to control; LD50 (mg/kg) by Kerber (in vivo): 90.5 ± 8. mg/kg; FFA/TG in incubation medium (rat adipocytes [4]): 1.10; PL/CL in incubation medium (rat adipocytes [4]): 0.96; PL/TG in incubation medium (rat adipocytes [4]): 0.84
Cc1ccc(CNc2c3c(nc4ccccc24)CC(C)(C)CC3=O)c(C)c1 [Vd],90 % to control,0 % to control,1e-05,50,> 1000,"Antiamnestic activity in Step-down test (% of mice with latency > cut off) (mice [6]): 20 % of mice; Performance of normal rats in passive avoidance test (rats; normal rats): statistically significantly improved performance of normal rats; Improving learning and memory compared with amiridine and piracetam (rats; normal rats, passive avoidance test): as effective in improving learning and memory as amiridine and piracetam"
CC1(C)Cc2nc3ccccc3c(NCc3ccc(Cl)cc3)c2C(O)C1 (stereo not shown) [VIg],40 % to control,36 % to control,3e-06,0,80 ± 2.7,–
CNc1c2c(nc3ccccc13)CC(C)(C)CC2=O [Vh],40 % to control,20 % to control,4e-07,0,65.8 ± 4.8,–
CCN(CC)CCNc1c2c(nc3ccccc13)CC(C)(C)CC2=O [Vr],0 % to control,26 % to control,5e-05,0,135 ± 8.2,–
CC1(C)C=Cc2c(nc3ccccc3c2NCc2ccccc2)C1 [VIIj],–,–,–,–,–,FFA/TG in adipocytes (rat adipocytes [2]): 1.00; PL/CL in adipocytes (rat adipocytes [2]): 0.83; PL/TG in adipocytes (rat adipocytes [2]): 0.86; FFAc/FFAm (rat adipocytes [2]): 0.93; PLc/PLm (rat adipocytes [2]): 1.08; FFA/TG in incubation medium (rat adipocytes [4]): 1.07; PL/CL in incubation medium (rat adipocytes [4]): 0.89; PL/TG in incubation medium (rat adipocytes [4]): 0.81
Cc1cc(C)c2nc3c(c(N)c2c1)C(=O)CC(C)(C)C3 [IVh],0 % to control,20 % to control,3e-05,0,> 500,–
CC1(C)C=Cc2c(nc3ccccc3c2NCc2ccccc2)C1 [VIIl],10 % to control,15 % to control,–,–,–,FFA/TG in adipocytes (rat adipocytes [2]): 1.00; PL/CL in adipocytes (rat adipocytes [2]): 0.75; PL/TG in adipocytes (rat adipocytes [2]): 0.78; FFAc/FFAm (rat adipocytes [2]): 0.96; PLc/PLm (rat adipocytes [2]): 0.97; Increase of the number of correct trails (% to control). Passive avoidance test (rats) (rats): 40 % to control; LD50 (mg/kg) by Kerber (in vivo): 116.7 ± 10.9 mg/kg; FFA/TG in incubation medium (rat adipocytes [4]): 1.00; PL/CL in incubation medium (rat adipocytes [4]): 0.91; PL/TG in incubation medium (rat adipocytes [4]): 0.77
Cc1ccc(C)c2c(N)c3c(nc12)CC(C)(C)CC3=O [IVf],0 % to control,0 % to control,1.3e-05,0,40 ± 1.2,Performance of normal rats in passive avoidance test (rats; normal rats): statistically significantly improved performance of normal rats
CC(C)Nc1c2c(nc3ccccc13)CC(C)(C)CC2=O [Vn],76 % to control,0 % to control,6e-06,0,70.2 ± 7.3,–
CCCNc1c2c(nc3ccccc13)CC(C)(C)CC2=O [Vl],74 % to control,30 % to control,3e-06,0,283 ± 35.7,–
Cc1cccc2c(N)c3c(nc12)CC(C)(C)CC3=O [IVl],57 % to control,0 % to control,6.3e-07,0,617 ± 23.7,–
CCCCNc1c2c(nc3ccccc13)CC(C)(C)C=C2 [VIIc],20 % to control,15 % to control,6e-07,25,33.3 ± 4.4,–
CC1(C)C=Cc2c(nc3ccccc3c2NCc2ccccc2)C1 [VIIi],20 % to control,15 % to control,–,–,–,"Antiamnestic activity in Step-down test (mice [6]): pronounced antiatonestic activity, comparable with that of amiridine and tacrine; Antiamnestic activity in Step-down test (% of mice with latency > cut off) (mice [6]): 25 % of mice; Performance of normal rats in passive avoidance test (rats; normal rats): statistically significantly improved performance of normal rats; Increase of the number of correct trails (% to control). Passive avoidance test (rats) (rats): 35 % to control; LD50 (mg/kg) by Kerber (in vivo): 500 mg/kg"
"CC1(C)Cc2nc3ccccc3c(NCc3ccccc3)c2C(O)C1 (stereo not shown) [VIe, 9-benzylamino-3,3-dimethyl-1,2,3,4-tetrahydroacridine-1-ol]",64 % to control,15 % to control,1.3e-06,0,50 ± 8.6,–
CC1(C)Cc2nc3ccccc3c(N)c2C(O)C1 (stereo not shown) [VIb],40 % to control,66 % to control,1.2e-06,20,63.3 ± 8.8,Antiamnestic activity in Step-down test (% of mice with latency > cut off) (mice [6]): 0 % of mice
Cc1ccc2nc3c(c(N)c2c1)C(=O)CC(C)(C)C3 [IVj],0 % to control,30 % to control,3e-05,0,63.6 ± 8.7,–
CC1(C)CC(=O)c2c(nc3ccc(Br)cc3c2N)C1 [IVd],15 % to control,20 % to control,5e-05,0,> 500,–
CCNc1c2c(nc3ccccc13)CC(C)(C)CC2=O [Vj],59 % to control,20 % to control,1.7e-06,0,73.3 ± 8.6,–
CC(C)CNc1c2c(nc3ccccc13)CC(C)(C)CC2=O [Vq],75 % to control,0 % to control,2e-06,0,158 ± 21.9,–
